These results are taken from US9340577B2, “HLA binding motifs and peptides and their uses” (priority 1992, dated 2016).

No end group written: not given here.

Holding throughout (experiment): biochemical
The target of one assay is HLA-A1 (A*0101) (Homo sapiens, UniProt P04439, A114D/A174V/A182V/D101N/D185E/E176A/E190D/L180R/Q94H/R68K/S129P/T187R/V100A/V91M/W191G). The class given is binding.
For another assay, the target named is A*2601 (Homo sapiens, UniProt P04439, A114D/A173T/A270S/D101N/D185E/E277Q/E87N/F33Y/G231S/I121R/I218V/K168Q/L180W/L300P/L318F/P208A/P217A/Q86R/Q94H/R138Q/S129P/T187R/T323A/T345S/V100A/V358M). The assay is classed as binding.
The target in a further assay is A*3002 (Homo sapiens, UniProt P04439, D101N/D140H/D185E/E176R/F33S/G80R/H175R/K168Q/Q94H/R138E/R41S/V100E). The assay is classed as binding.
For a further assay, the target named is A*2902 (Homo sapiens, UniProt P04439, A270S/D101N/D185E/E176V/E277Q/E87Q/F33T/G231S/H175R/I121M/I218V/I322F/K168Q/L300P/L318F/M331R/P208A/P217A/Q86L/T323A/T345S/V100A/V358M). The assay is classed as binding.
The target of the next assay is HLA-A11 (A*1101) (Homo sapiens, UniProt P04439, A114D/D185E/E176A/F33Y/L180Q/S129P/T187R). The assay is classed as binding.
Another assay concerns the target A31 (A*3101) (Homo sapiens, UniProt P04439, A270S/D185E/E176V/E277Q/F33T/G231S/G80R/H175R/I121M/I218V/I322F/K168Q/L300P/L318F/M331R/P217A/Q94H/R138Q/T323A/T345S/T97I/V358M). The class given is binding.
The next assay has as its target A*3301 (Homo sapiens, UniProt P04439, A270S/D185E/E176V/E277Q/E87N/F33T/G231S/H175R/I121M/I218V/I322F/K168Q/K210R/L300P/L318F/M331R/P217A/Q86R/Q94H/R138Q/T323A/T345S/T97I/V358M/Y195H). The class given is binding.
A further assay deals with A*6801 (Homo sapiens, UniProt P04439, A269V/D185E/E176V/E277Q/E87N/F33Y/G231S/I121M/I166T/I218V/L180W/L300P/L318F/N151K/P208A/P217A/Q86R/R169H/T345S). The class given is binding.
The target of a further assay is DR1 (DRB1*0101) (Homo sapiens, UniProt P01903+P01911, A100R/D57E/F55L/F60I/F76Y/I96L/L162R/M171V/P40L/Q125E/R42F/V115G/Y59C). The assay is classed as binding.
The target of the next assay is DR4w4 (DRB1*0401) (Homo sapiens, UniProt P01903+P01911, A100K/A169T/F76Y/I96L/K127E/L162R/M171V/N62H/P40V/Q125Y/R42H/S133A/S149N/S66Y/V115G/V209L/W38E). The assay is classed as binding.
For another assay, the target named is DR7 (DRB1*0701) (Homo sapiens, UniProt P01903+P01911, A100R/A102G/A103Q/D57E/D86V/E43K/F76Y/K127E/L162R/M171V/P40G/Q125H/Q99D/R33Q/R42Y/R54Q/S133A/S66F/T210M/V115G/Y107V/Y59L/Y89S). The assay is classed as binding.
The target of a further assay is DRB1*0301 (Homo sapiens, UniProt P01903+P01911, A100K/A102G/A103R/A169T/F55Y/I96L/K41T/L162R/M171V/P40S/Q125H/Q178H/Q39Y/R42S/S66N/T106N/T262R/W38E/Y61H). The assay is classed as binding.
The next assay has as its target DRB1*0405 (Homo sapiens, UniProt P01903+P01911, A100R/A169T/D86S/F76Y/I96L/K127E/L162R/M171V/N62H/P40V/Q125Y/R42H/S133A/S149N/S66Y/V115G/V209L/W38E). The class given is binding.
The target in a further assay is DRB1*0802 (Homo sapiens, UniProt P01903+P01911, A100R/A103L/A169T/F76Y/H45Y/I96F/K41T/L162R/M171V/P40S/Q125H/Q178H/Q39Y/Q99D/R218S/R42G/S66Y/V115G/W38E). The class given is binding.
The next assay deals with DRB1*0901 (Homo sapiens, UniProt P01903+P01911, A100R/A103E/D57H/D86V/F55Y/F60I/F76Y/I96F/K127E/L162R/M171V/P40D/Q125H/Q99R/R33Q/R42F/S133A/S66N/T210M/V115G/W38K/Y107V/Y59G/Y89S). The class given is binding.
The target of the next assay is DRB1*1201 (Homo sapiens, UniProt P01903+P01911, A100R/A169T/D57E/D86V/F55L/H45Y/K41T/L162R/M171V/P40S/Q125H/Q178H/Q39Y/Q99D/R42G/S66L/T262R/V114A/V67L/W38E/Y59H/Y61H/Y89S). The class given is binding.
Another assay has as its target DRB1*1302 (Homo sapiens, UniProt P01903+P01911, A100E/A169T/K41T/L162R/M171V/P40S/Q125H/Q178H/Q39Y/Q99D/R42S/S66N/T262R/V115G/W38E/Y61H). The class given is binding.
A further assay deals with DRB1*1501 (Homo sapiens, UniProt P01903+P01911). The assay is classed as binding.
Another assay deals with DRB3*0101 (Homo sapiens, UniProt P01903+P79483). The class given is binding.
In the next assay the target is DRB4*0101 (Homo sapiens, UniProt P01903+P13762, G164S). The class given is binding.
The target of the next assay is DRB1*1101 (Homo sapiens, UniProt P01903+P01911, A100R/A169T/A87E/I96F/K41T/L162R/M171V/P40S/Q125H/Q178H/Q39Y/Q99D/R42S/S66Y/T262R/V115G/W38E). The note with it: Binding affinity DRB1 *1101.
The target in a further assay is DRB5*0101 (Homo sapiens, UniProt P01903+Q30154). The note with it: Binding affinity DRB5 *0101.

Chain of A*3002 (P04439 whole entry, looked up, the tested form may be a part, stated change not applied): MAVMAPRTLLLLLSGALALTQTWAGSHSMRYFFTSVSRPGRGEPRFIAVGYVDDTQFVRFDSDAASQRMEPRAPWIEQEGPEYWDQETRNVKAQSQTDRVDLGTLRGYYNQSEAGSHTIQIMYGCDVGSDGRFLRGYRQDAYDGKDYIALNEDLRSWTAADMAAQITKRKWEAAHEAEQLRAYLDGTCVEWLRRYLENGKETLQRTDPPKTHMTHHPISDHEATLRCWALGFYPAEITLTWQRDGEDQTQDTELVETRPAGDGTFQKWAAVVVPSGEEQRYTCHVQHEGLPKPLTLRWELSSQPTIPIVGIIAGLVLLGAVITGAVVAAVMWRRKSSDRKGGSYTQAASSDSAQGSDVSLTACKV
Chain of DRB1*1302 (P01903 26-254 limits assumed, other chains not shown): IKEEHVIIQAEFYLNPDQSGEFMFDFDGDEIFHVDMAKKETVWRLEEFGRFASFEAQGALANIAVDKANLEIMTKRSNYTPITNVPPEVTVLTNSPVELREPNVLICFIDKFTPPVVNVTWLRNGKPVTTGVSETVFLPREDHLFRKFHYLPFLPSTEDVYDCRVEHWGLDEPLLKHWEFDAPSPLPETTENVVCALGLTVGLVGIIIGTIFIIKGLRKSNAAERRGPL
Chain of DRB1*1101 (P01903 26-254 limits assumed, other chains not shown): as above
Chain of DRB1*0301 (P01903 26-254 limits assumed, other chains not shown): as above

HMARELHPEY [Peptide 9015.0176]: the IC50 at HLA-A1 (A*0101) is 618 nM; on A*2601, 1570 nM; on A*3002 it was 33 nM.
As for SSSKVSQNY [Peptide 9015.0011], the IC50 against A*2902 came to 1760 nM; at A*3002 it was 32 nM.
With NYLVKHHMY [Peptide 9018.0037], the IC50 at HLA-A1 (A*0101) came out at 305 nM; at A*2902, 63 nM; against A*3002, 12 nM.
The like results for IVNRVRQGY [Peptide 1595.07] were, in that order, 19800 nM, 2030 nM and 6.3 nM.
In the case of SSNTKANILY [Peptide 1580.08], the figures for the IC50 on HLA-A1 (A*0101), on A*2601 and on A*3002 were 290 nM, 579 nM and 33 nM, respectively.
Consider MSDSQWIKY [Peptide 1593.05], for which the results for the half-inhibitory concentration (IC50) at HLA-A1 (A*0101), against A*2902 and against A*3002 were 10 nM, 839 nM and 434 nM, respectively.
FSITNWLWY [Peptide 9015.0008]: the values for the IC50 against HLA-A1 (A*0101), against A*2902 and on A*3002 were 74 nM, 37 nM and 870 nM, respectively.
ITKIQNFRVY [Peptide 9015.0173]: the IC50 against HLA-A1 (A*0101) amounted to 9470 nM; at A*2902, 1800 nM.
Turning to STEWRQRRY [Peptide 9018.0017], the figures for the IC50 at HLA-A1 (A*0101), on A*2601 and on A*3002 were 7.1 nM, 371 nM and 19 nM, respectively.
In turn, WFSITNWLWY [Peptide 9015.0159] showed an IC50 against A*2902 of 30 nM.
`CC(C)C[C@H](NC(=O)[C@H](CO)NC(=O)[C@@H](N)CCCNC(=N)N)C(=O)N[C@@H](Cc1ccc(O)cc1)C(=O)N[C@@H](CC(N)=O)C(=O)N[C@H](C(=O)N[C@H](C(=O)N[C@@H](C)C(=O)N[C@H](C(=O)N[C@@H](CC(C)C)C(=O)N[C@@H](Cc1ccc(O)cc1)C(=O)O)[C@@H](C)O)C(C)C)[C@@H](C)O` [Peptide 1595.06]: the IC50 against HLA-A11 (A*1101) is 148 nM; at A31 (A*3101), 9270 nM; at A*3301, more than 20000 nM; on A*6801, more than 20000 nM; against HLA-A1 (A*0101) it was 221 nM; on A*2902 it was 750 nM. The compound further came in with an IC50 on A*3002 of 1.2 nM.
As to SSNLQGKLY [Peptide 86.0139], the IC50 against HLA-A1 (A*0101) is 3030 nM; against A*2902, 15900 nM; against A*3002 it was 62 nM.
Regarding IVDDSEIAY [Peptide 1580.04], the results for the IC50 against A*2601 and at A*3002 were more than 20000 nM and 2030 nM, respectively.
As to QTKGLGISY [Peptide 9015.0031], the figures for the IC50 against HLA-A1 (A*0101), against A*2902 and against A*3002 were more than 20000 nM, more than 20000 nM and 715 nM, respectively.
Regarding VSIEWRKRRY [Peptide 9015.0183], the IC50 is more than 20000 nM against HLA-A1 (A*0101), more than 20000 nM against A*2902 and 231 nM against A*3002.
Turning to LFDQLIHMHY [Peptide 9018.0033], the IC50 against HLA-A1 (A*0101) is 4070 nM; against A*2902 it was 280 nM; against A*3002, 47 nM.
Turning to NSNTKATLLY [Peptide 1580.16], the IC50 against A*2902 stood at 299 nM; against A*3002, 470 nM.
As to LTDQLIHMHY [Peptide 9018.0032], the IC50 against HLA-A1 (A*0101) is 6.6 nM; against A*3002, 350 nM.
As to QERPRKLPQLCTELQ [Peptide 1543.22], the IC50 against DR1 (DRB1*0101) is more than 20000 nM; on DR4w4 (DRB1*0401), 5120 nM; against DR7 (DRB1*0701), more than 20000 nM; at DRB1*0301, more than 20000 nM; against DRB1*0405 it was more than 20000 nM; against DRB1*0802, more than 20000 nM. Besides, the IC50 is more than 20000 nM against DRB1*0901; 11700 nM against DRB1*1201; more than 20000 nM at DRB1*1302; more than 20000 nM at DRB1*1501; more than 20000 nM at DRB3*0101; 81 nM against DRB4*0101. Further, the IC50 on DRB1*1101 and on DRB5*0101 was more than 20000 nM in each case.
For the compound LSQMVQWAY [Peptide 1580.03], the IC50 at HLA-A1 (A*0101) was determined as 25 nM; against A*2902, 124 nM; against A*3002 it was 1.8 nM.
As to VTFDPIPIHY [Peptide 9015.0153], the IC50 was found to be 619 nM on A*2902 and 380 nM against A*3002.
On to CSMSYTWTGA [Peptide 1489.14], for which the IC50 on HLA-A1 (A*0101) and at A*2902 was more than 20000 nM throughout.
As for VWTIVYIEY [Peptide 9015.0089], the IC50 against HLA-A1 (A*0101) is 6980 nM; against A*2601, more than 20000 nM.
With LADQLIHMHY [Peptide 9015.0186], the half-inhibitory concentration (IC50) against HLA-A1 (A*0101) stood at 8.1 nM; on A*2902, 3070 nM; against A*3002, 817 nM.
On the same counts, the results for WFDITNWLWY [Peptide 9015.0161] are 986 nM, 150 nM and 1660 nM.
The like results for NTDKSLVKY [Peptide 9018.0008] were, in that order, 7.3 nM, 5430 nM and 3010 nM.
Regarding VTRRANGWFY [Peptide 9018.0011], the IC50 is 25 nM on HLA-A1 (A*0101), 905 nM against A*2902 and 0.71 nM against A*3002.
WFDITKWLWY [Peptide 9015.0160] yielded an IC50 on A*3002 of 3390 nM.
Turning to LYDQLIHMHY [Peptide 9018.0034], the IC50 against A*2902 was found to be 123 nM; against A*3002, 55 nM.
As for LFDQLIHLY [Peptide 9018.0027], the values for the IC50 against HLA-A1 (A*0101), against A*2902 and on A*3002 were 83 nM, 45 nM and 10 nM, respectively.

A word on the IC50: it is the midpoint of a concentration-inhibition curve. The low end stands for inhibition by little substance, the high end for a need for much substance.
